For data set [1], the system named is human small cell lung cancer (H1688) cells. Kind of data set: Cytotoxicity MTT assay, H1688 cell line. As to conditions: 37 °C, 24 h, read-out: cytotoxicity toward H1688 cell line, IC50. It is filed as cell-based. The protocol: The cytotoxicities of compounds were analyzed by using the human small cell lung cancer H1688 cell line and the 3-(4,5-dimethylthiazol-2-yl)-2,5-diphenyl tetrazolium bromide (MTT, Sigma-Aldrich, St. Louis, MO, USA) assay at 37 °C for 24 h.
In general terms: Tetrazolium assays rely on reduction of a dye to a coloured formazan, in cell work by metabolically active cells.

Data set [2] in a line: Cell viability of dendritic cells (CCK-8). Format: cell-based, murine. The settings on record: mouse, dendritic cells (DCs), CCK-8, 37 °C, read-out: cytotoxicity against DCs, IC50. The protocol: The DCs (1 × 10^6) were treated with tested compounds (100 μg/mL) and cultured at 37 °C for 24 h. Cytotoxicity was examined using a Cell Counting Kit-8 (CCK-8; Dojindo Molecular Technologies, Inc., Kumamoto, Japan) according to the manufacturer’s protocol. The absorbance was recorded on a microplate reader (Tecan Group Ltd., Männedorf, Switzerland) at a wavelength of 450 nm.

The subject of data set [3] is TNF-α expression in LPS-stimulated murine dendritic cells (DCs). The data set can be described thus: TNF-α expression by LPS-induced DCs (ELISA). As to conditions: Mus musculus, Dendritic cell, 100 ng/mL LPS, 24 h, read-out: inhibition of TNF-α expression in LPS-stimulated DCs, IC50. Format: cell-based. On the procedure: The TNF-α expressions of LPS-induced DCs were measured by enzyme-link immunosorbent assay (ELISA), in the same way as the previously reported method. The DCs were treated with 100 ng/mL lipopolysaccharide (LPS) and the isolated compounds for 24 h. The optical density of the production of TNF-α was measured at 450 nm by the ELISA reader.

One may read the IC50 as the point on the concentration scale where inhibition reaches its midpoint.

For the compound `C=C[C@@](C)(Cl)[C@@H](Cl)/C=C/C(=C/Cl)C(Cl)Cl` (relative stereo) [(3R*,4S*,5E,7Z)-7-dichlorothyl-3,4,8-trichloro-3-methylocta-1,5,7-triene], in data set [1], the IC50 worked out at 4.2 ± 2.1 µM.

Take `O=c1c(O)c(-c2ccc(O)c(O)c2)oc2cc(O)cc(O)c12` [Quercetin]: in data set [2], the 50% inhibitory concentration (IC50) at 24 h turned out to be 78.8 ± 7.3 µM. For the same compound, in data set [3], the IC50 was 23.1 ± 5.2 µM.

On to `COC1OC2C=C(C)CCC=C(C)CCC3OC3(C)CCC2=C1C` (stereo not drawn) [compound 3, 16β-Methoxyisosarcophytoxide], for which the 50% inhibitory concentration (IC50) in data set [1] is 27.5 ± 6.4 µM.

As for `COC1OC2C=C(C)CCC=C(C)CCC3OC3(C)CCC2=C1C` (stereo not drawn) [compound 4, 16α-Methoxyisosarcophytoxide], in data set [1], the IC50 was determined as 85.8 µM.

Values taken from paper PMC9862023, “Isosarcophytoxide Derivatives with a 2,5-Dihydrofuran Moiety from the Soft Coral Sarcophyton cinereum” (Molecules, 2023).
